Test results: patent publication US7268152B2, “Glucocorticoid mimetics, methods of making them, pharmaceutical compositions, and uses thereof” (Boehringer Ingelheim Pharmaceuticals, Inc., priority 2002, dated 2007)

Assays:
glucocorticoid receptor = experiment: One or more of the above assays (GR binding and GR cell assays; not specified which); type: cell-based; conditions: in one or more of the above assays
Procedure: This assay uses fluorescence polarization (FP) to quantitate the ability of test compounds to compete with tetramethyl rhodamine (TAMRA)-labeled dexamethasone for binding to a human glucocorticoid receptor (GR) complex prepared from an insect expression system. The assay buffer was: 10 mM TES, 50 mM KCl, 20 mM Na2MoO4.2H2O, 1.5 mM EDTA, 0.04% w/v CHAPS, 10% v/v glycerol, 1 mM dithiothreitol, pH 7.4. Test compounds were dissolved to 1 mM in neat DMSO and then further diluted to 10×assay concentration in assay buffer supplemented with 10% v/v DMSO. Test compounds were serially diluted at 10×assay concentrations in 10% DMSO-containing buffer in 96-well polypropylene plates. […] Positive controls were reaction mixtures containing no test compound; negative controls (blanks) were reaction mixtures containing 0.7 μM to 2 μM dexamethasone. […] IC50 values were determined by iterative non-linear curve fitting of the FP signal data to a 4-parameter logistic equation.
B. Glucocorticoid Receptor Cell Assays
1. Induction of Aromatase in Fibroblasts (Cell Assay for Transactivation)
Dexamethasone, a synthetic ligand to the glucocorticoid receptor (GR), induces expression of aromatase in human foreskin fibroblast cells. The activity of aromatase is measured by the conversion of testosterone to estradiol in culture media.
On the day of the experiment, the media in the wells is replaced with fresh media. Cells are treated with test compounds to final concentrations of 10^−5 M to 10 ^−8 M, and testosterone to a final concentration of 300 ng/mL. Each well has a total volume of 100 μL. Samples are made in duplicates. Control wells include: (a) wells that receive testosterone only, and (b) wells that receive testosterone plus 2 μM of dexamethasone to provide maximum induction of aromatase. Plates are incubated at 37° C. overnight (15 to 18 hours), and supernatants are harvested at the end of incubation. […] The amount of estradiol is inversely proportional to the ELISA signals in each well. The extent of aromatase induction by test compounds is expressed as a relative percentage to dexamethasone. EC50 values of test compounds are derived by non-linear curve fitting.
2. Inhibition of IL-6 Production in Fibroblasts (Cell Assay for Transrepression)
Human foreskin fibroblast cells produce IL-6 in response to stimulation by pro-inflammatory cytokine IL-1.
On the next day, media in the wells is replaced with fresh media. Cells are treated with IL-1 (rhIL-1α, R&D Systems Cat. No. 200-LA) to a final concentration of 1 ng/mL, and with test compounds to final concentrations of 10 ^−5 M to 10 ^−8 M, in a total volume of 200 μL per well. Samples are done in duplicates. […] Positive control wells receive IL-1 only and represent maximum (or 100%) amount of IL-6 production. Plates are incubated at 37° C. overnight (15 to 18 hours), and supernatants are harvested at the end of incubation. IL-6 levels in the supernatants are determined by the ELISA kits for IL-6 (MedSystems Diagnostics GmbH, Vienna, Austria, Cat. No. BMS213TEN) according to manufacture's instructions. The extent of inhibition of IL-6 by test compounds is expressed in percentage relative to positive controls. IC50 values of test compounds are derived by non-linear curve fitting.
Evaluation of agonist or antagonist activity of compounds binding to the glucocorticoid receptor may be determined by any of the assays.
3. Modulation of Tyrosine Aminotransferase (TAT) Induction in Rat Hepatoma Cells
Testing of compounds for agonist or antagonist activity in induction of tyrosine aminotransferase (TAT) in rat hepatoma cells.
H4-II-E-C3 cells were incubated overnight in 96 well plates (20,000 cells/100 μL/well) in MEM medium containing 10% heat inactivated FBS and 1% nonessential amino acids. On the next day, cells were stimulated with the indicated concentrations of dexamethasone or test compound (dissolved in DMSO, final DMSO concentration 0.2%) for 18 hours. Control cells were treated with 0.2% DMSO.

[1] = biological target: T1, human glucocorticoid receptor (GR) complex (Homo sapiens, UniProt P04150); experiment: Glucocorticoid receptor competitive binding assay (fluorescence polarization); conditions: competition with TAMRA-labeled dexamethasone
T1 construct: made in house; host or cells: insect expression system (baculovirus lysate)
T1 sequence (P04150 1-777): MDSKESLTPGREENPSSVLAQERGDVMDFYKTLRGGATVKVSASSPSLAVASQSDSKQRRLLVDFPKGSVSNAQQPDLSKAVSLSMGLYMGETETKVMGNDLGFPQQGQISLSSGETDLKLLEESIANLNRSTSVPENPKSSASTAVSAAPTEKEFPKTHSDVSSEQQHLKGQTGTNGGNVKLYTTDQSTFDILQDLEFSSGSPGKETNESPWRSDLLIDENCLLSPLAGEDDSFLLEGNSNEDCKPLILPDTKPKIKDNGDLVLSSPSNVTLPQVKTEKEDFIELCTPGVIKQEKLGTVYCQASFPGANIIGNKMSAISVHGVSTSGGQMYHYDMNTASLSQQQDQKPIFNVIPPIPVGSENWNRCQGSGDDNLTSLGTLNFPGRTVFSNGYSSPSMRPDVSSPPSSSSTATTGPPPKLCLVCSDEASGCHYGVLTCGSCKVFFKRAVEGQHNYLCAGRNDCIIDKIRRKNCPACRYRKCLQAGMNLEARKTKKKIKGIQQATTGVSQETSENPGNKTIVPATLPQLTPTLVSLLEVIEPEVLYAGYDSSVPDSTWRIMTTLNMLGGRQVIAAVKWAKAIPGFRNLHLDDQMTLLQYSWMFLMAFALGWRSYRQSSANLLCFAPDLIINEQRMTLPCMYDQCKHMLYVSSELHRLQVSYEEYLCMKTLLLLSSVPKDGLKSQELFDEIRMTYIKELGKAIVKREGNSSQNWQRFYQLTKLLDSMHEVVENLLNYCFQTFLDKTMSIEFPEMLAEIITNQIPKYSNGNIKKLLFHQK
Summary of the method: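 FP competition against 15 nM TAMRA-labeled dexamethasone (stock added) for GR complex in baculovirus insect-cell lysate, buffer 10 mM TES, 50 mM KCl, 20 mM molybdate, pH 7.4 with 1 mM DTT. Incubated 1 h at room temperature, read at ex 550/em 580 nm; IC50 from 4-parameter logistic fit.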

| SMILES | activity as agonists of the glucocorticoid receptor function (glucocorticoid receptor) | IC50 [1] |
| --- | --- | --- |
| CC(C)(CC(O)(Cc1cc(C(F)(F)F)cc(Cl)c1F)C(F)(F)F)c1cccc2ccoc12 (centres unmarked) [4-Benzofuran-7-yl-2-(3-chloro-2-fluoro-5-trifluoromethylbenzyl)-1,1,1-trifluoro-4-methylpentan-2-ol] | activity as agonists | ≤ 0.1 µM |
| COc1ccc(F)cc1C(C)(C)CC(O)(Cc1cc(C)cc(Cl)c1)C(F)(F)F (centres unmarked) [2-(3-Chloro-5-methylbenzyl)-1,1,1-trifluoro-4-(5-fluoro-2-methoxyphenyl)-4-methylpentan-2-ol] | activity as agonists | ≤ 0.1 µM |
| CC(C)(CC(O)(Cc1ccc(C#N)cc1Cl)C(F)(F)F)c1cccc2c1OCC2 (centres unmarked) [3-Chloro-4-[4-(2,3-dihydrobenzofuran-7-yl)-2-hydroxy-4-methyl-2-trifluoromethylpentyl]benzonitrile] | activity as agonists | ≤ 0.1 µM |
| CC(C)(CC(O)(Cc1cc(Br)cc(Br)c1)C(F)(F)F)c1cc(F)ccc1O (centres unmarked) [2-[3-(3,5-Dibromobenzyl)-4,4,4-trifluoro-3-hydroxy-1,1-dimethylbutyl]-4-fluorophenol] | activity as agonists | ≤ 0.1 µM |
| Cc1cc(C)cc(CC(O)(CC(C)(C)c2cccc3c2OCC3)C(F)(F)F)c1 (centres unmarked) [4-(2,3-Dihydrobenzofuran-7-yl)-2-(3,5-dimethylbenzyl)-1,1,1-trifluoro-4-methylpentan-2-ol] | activity as agonists | ≤ 0.1 µM |
| COc1ccc(F)cc1C(C)(C)CC(O)(Cc1cc(C(F)(F)F)cc(Cl)c1F)C(F)(F)F (centres unmarked) [2-(3-Chloro-2-fluoro-5-trifluoromethylbenzyl)-1,1,1-trifluoro-4-(5-fluoro-2-methoxyphenyl)-4-methylpentan-2-ol] | activity as agonists | ≤ 0.1 µM |
| COc1ccc(F)cc1C(C)(C)CC(O)(Cc1cc(Br)cc(C)c1F)C(F)(F)F (centres unmarked) [2-(5-Bromo-2-fluoro-3-methylbenzyl)-1,1,1-trifluoro-4-(5-fluoro-2-methoxyphenyl)-4-methylpentan-2-ol] | activity as agonists | ≤ 0.1 µM |
| Cc1cc(Cl)cc(CC(O)(CC(C)(C)c2cc(F)ccc2O)C(F)(F)F)c1 (centres unmarked) [2-[3-(3-Chloro-5-methylbenzyl)-4,4,4-trifluoro-3-hydroxy-1,1-dimethylbutyl]-4-fluorophenol] | activity as agonists | ≤ 0.1 µM |
| COc1ccc(F)cc1C(C)(C)CC(O)(Cc1cc(Br)cc(Br)c1)C(F)(F)F (centres unmarked) [2-(3,5-Dibromobenzyl)-1,1,1-trifluoro-4-(5-fluoro-2-methoxyphenyl)-4-methylpentan-2-ol] | activity as agonists | ≤ 0.1 µM |
| COc1ccc(F)cc1C(C)(C)CC(O)(Cc1cc(C)cc(C)c1)C(F)(F)F (centres unmarked) [2-(3,5-Dimethylbenzyl)-1,1,1-trifluoro-4-(5-fluoro-2-methoxyphenyl)-4-methylpentan-2-ol] | activity as agonists | ≤ 0.1 µM |
| Cc1cc2c(c(C(C)(C)CC(O)(Cc3ccc(C#N)cc3Cl)C(F)(F)F)c1)OCC2 (centres unmarked) [3-Chloro-4-[2-hydroxy-4-methyl-4-(5-methyl-2,3-dihydrobenzofuran-7-yl)-2-trifluoromethylpentyl]benzonitrile] | activity as agonists |  |
| COc1ccc(F)cc1C(C)(C)CC(O)(Cc1ccc(/C=N/O)cc1Cl)C(F)(F)F (centres unmarked) [3-Chloro-4-[4-(5-fluoro-2-methoxyphenyl)-2-hydroxy-4-methyl-2-trifluoromethylpentyl]benzaldehyde oxime] | activity as agonists |  |
| COc1ccc(F)cc1C(C)(C)CC(O)(Cc1ccc(Cl)c(Cl)c1)C(F)(F)F (centres unmarked) [2-(3,4-Dichlorobenzyl)-1,1,1-trifluoro-4-(5-fluoro-2-methoxyphenyl)-4-methylpentan-2-ol] | activity as agonists |  |
| COc1ccc(F)cc1C(C)(C)CC(O)(Cc1ccc(C(C)=O)cc1Cl)C(F)(F)F (centres unmarked) [1-{3-Chloro-4-[4-(5-fluoro-2-methoxyphenyl)-2-hydroxy-4-methyl-2-trifluoromethylpentyl]phenyl}ethanone] | activity as agonists |  |
| COc1ccc(F)cc1C1(CC(O)(Cc2ccc(C#N)cc2Cl)C(F)(F)F)CC1 (centres unmarked) [3-Chloro-4-{3,3,3-trifluoro-2-[1-(5-fluoro-2-methoxyphenyl)cyclopropylmethyl]-hydroxypropyl}benzonitrile] | activity as agonists |  |
| Cc1cc(C)c(C#N)c(CC(O)(CC(C)(C)c2cc(F)ccc2O)C(F)(F)F)c1 (centres unmarked) [2-[4-(5-Fluoro-2-hydroxyphenyl)-2-hydroxy-4-methyl-2-trifluoromethylpentyl]-4,6-dimethylbenzonitrile] | activity as agonists |  |
| COc1ccc(F)cc1C(C)(C)CC(O)(Cc1ccc(CO)cc1Cl)C(F)(F)F (centres unmarked) [2-(2-Chloro-4-hydroxymethylbenzyl)-1,1,1-trifluoro-4-(5-fluoro-2-methoxyphenyl)-4-methylpentan-2-ol] | activity as agonists |  |
| CC(C)(CC(O)(Cc1ccc(C#N)cc1Cl)C(F)(F)F)c1cc(C#N)cc2c1OCC2 (centres unmarked) [7-[3-(2-Chloro-4-cyanobenzyl)-4,4,4-trifluoro-3-hydroxy-1,1-dimethylbutyl]-2,3-dihydrobenzofuran-5-carbonitrile] | activity as agonists |  |
| Cc1ccc(F)cc1C(C)(C)CC(O)(Cc1ccc(C#N)cc1Cl)C(F)(F)F (centres unmarked) [3-Chloro-4-[4-(5-fluoro-2-methylphenyl)-2-hydroxy-4-methyl-2-trifluoromethylpentyl]benzonitrile] | activity as agonists |  |
